Measured values: the NIST ThermoML archive (doi:10.1016/j.fluid.2018.11.035)

Test: wn = mass fraction of the nth substance listed
Conditions: 101 kPa, Liquid, Vibrating tube method, w1 = 0.365

OCCO [1,2-ethanediol] + O
Conditions	mass density [kg/m3]
283.15 K	1059.35
293.15 K	1054.78
303.15 K	1049.78
313.15 K	1044.38
323.15 K	1038.57
333.15 K	1032.23
